Laboratory results taken from a melting point compilation (Tetko et al.; mined from patent text by program, amines drawn as free bases though some values may be those of a salt).
Residues, ends and D or L forms follow the SMILES beside them. *: point of attachment. Boc = CC(C)(C)OC(=O)*

SMILES | melting point
O=C1CCC(c2ccccc2)N1c1ccccc1 (configuration not stated) | 106 to 108 °C
CCc1nc2c(N)nc3cc(OCCN(C(N)=O)C(C)C)ccc3c2n1CC1CCOCC1 | 223 to 225 °C
CNC(C)Cc1ccc(CCCC(=O)O)cc1 (configuration not stated) | 170 to 172 °C
COCCn1nc(C)c(-c2ccc3c(c2)NC(=O)CO3)c1-c1ccc(F)cc1 | 174 °C
O=C(c1cc(-c2ccccc2)c2sccc2c1)N1CCCCC1 | 112 °C
Cc1cc(-c2c(-c3ccc(F)cc3)nn3cccnc23)ccn1 | 164 to 166 °C
Cc1ccccc1CCC(C)(C)NC(=O)n1nc(N(C)C)n(N)c1=O | 117 °C
Cc1nc2ccc3c(c2o1)OC(CN1CC=C(c2c[nH]c4ccc(C#N)cc24)CC1)CO3 (configuration not stated) | 119 °C
O=C(NCCC1CCN(c2noc3cc(Cl)ccc23)CC1)c1nsc2ccccc12 | 132 to 134 °C
CC(=O)Nc1cccc2c1CC(=O)CC2 | 203 to 205 °C
N#Cc1nn(-c2c(Cl)cc(C(F)(F)F)cc2Cl)c(N)c1C(=O)C(F)(F)F | 226 °C
COc1ccc2[nH]c(SCc3nccc(N4CCOCC4)n3)nc2c1 | 188 to 192 °C
CC(=O)OCCc1cccc2c(-c3ccccc3)c([N+](=O)[O-])oc12 | 95 to 98 °C
CC#CC1(O)CCC2C3CCC4=CC(=O)CCC4C3C(C(F)F)CC21C (configuration not stated) | 191 to 193 °C
O=C(O)c1ccc(CF)cc1 | 192 to 194 °C
FC(F)(F)c1ccc(Cl)c(CN2CCNc3ncc(I)cc32)c1 | 120 to 125 °C
COC(=O)C(=O)c1ccc(OCc2ccc3ccccc3c2)cc1 | 101 to 102 °C
O=c1cc(-c2ccccc2)oc(N2CCOCC2)c1 | 148 to 150 °C
COC(=O)COc1cc2c(c3c1c(C(=O)C(N)=O)c(C)n3Cc1ccccc1)CCC2 | 135 to 138 °C
COc1ccc(C2=NN(C3CCN(S(=O)(=O)Cc4ccccc4)CC3)C(=O)CC2)cc1OC | 114 °C

SMILES | melting point
O=C(Nc1ccc(C(F)(F)F)cc1)NC1CCOCC1 | 196 to 198 °C
COc1ccc(-c2nc(CCBr)nc3cc(OC)c(OC)cc23)cc1OC | 166 to 167 °C
CCc1cccc(C(=O)NN(C(=O)c2cc(C)cc(C)c2)C(C)(C)C)c1C | 167 to 169 °C
C#CCN1CCC(N2C(=O)Nc3ccccc3C2c2ccccc2)CC1 (configuration not stated) | 198 to 201 °C
CC(=O)C=Cc1c(C)c(C)c(C)c2c1OC(C)(C)C2 | 125 °C
CCOc1ccc2c(C)c(CCO)c(=O)oc2c1OCC | 130 to 131 °C
CNc1cccc2c1CCn1cc(-c3ccccc3)nc1C2OC1CCN(C)CC1 (configuration not stated) | 189 °C
COc1ccc(C2C(=O)c3ccc(OC)cc3C2=O)cc1 (configuration not stated) | 163 °C
Cc1noc(NS(=O)(=O)c2ccccc2-c2ccc(-c3ncco3)cc2Cn2nccn2)c1C | 162 to 168 °C
COC(=O)Cc1c(C)n(-c2ncnc3cc(Cl)ccc23)c2ccc(OC)cc12 | 112 to 114 °C
COc1ccccc1-n1c(-c2sc(Nc3ccc(Cl)cc3)nc2C)nc2ccccc2c1=O | 225 to 226 °C
CCc1cccc(C)c1CNc1cc(C(=O)NC)nc2c1nc(C)n2C | 236 to 238 °C
CN1C(=O)CCC(C)(C)c2cc([N+](=O)[O-])ccc21 | 115 °C
Cc1cnnc2ccccc12 | 70 to 72 °C
O=C1c2ccccc2C2(c3ccc(Cl)cc3)NCCCCN12 (configuration not stated) | 134 to 135 °C
O=C1OC(c2ccccc2)C(c2ccccc2)=C1C(=O)N1CCOCC1 (configuration not stated) | 204 to 206 °C
Clc1ccc(C2=C[C@H](CN3CC=C(c4ccccc4)CC3)CCC2)cc1 | 138 to 141 °C
O=Cc1cccc(C=Cc2ccc3ccccc3n2)c1 | 78.6 to 80.8 °C
CCOC(=O)C(=O)Nc1coc2cc(OC)ccc2c1=O | 218 to 220 °C
COC1=CC2SC2C2(OC)SC12OC (configuration not stated) | 143 to 144 °C

SMILES | melting point
CCc1cnc2c(c1)C(=O)N(C(C)(C(N)=O)C(C)C)C2=O (configuration not stated) | 115 to 117 °C
O=C(CCl)c1ccc(-c2ccc(SC(F)F)cc2)cc1 | 102 to 104 °C
COc1ccc(CNc2ccc(C#N)cc2)cc1OC | 150 °C
CCOC(=S)NC1(N=NC(C)(C)C)CCCCC1 | 57 to 62 °C
CC(C)(C)c1nc2cc(N3CCN(S(C)(=O)=O)CC3)c(N=C=S)cc2s1 | 128 to 130 °C
CC(=O)Nc1cccc(-c2cccc(-n3cnc4cc(C(F)(F)F)ccc43)c2)c1 | 118 to 120 °C
COc1cccc(-c2nn(Cc3oc4ccccc4c(=O)c3-c3ccccc3)c3ncnc(N)c23)c1 | 111 to 115 °C
Cc1ccc(C(=O)Nc2ccccc2C(N)=O)cc1 | 206 to 208 °C
CC1(C)CC(O)CC(C)(C)N1CC#CCN1C(C)(C)CC(O)CC1(C)C | 203 °C
COc1ccc2nc3[nH]cnc(=O)c3cc2c1 | > 300 °C
CN1C2CCC1C1CN(C(=O)N3c4ccccc4C(=O)Nc4cccnc43)CC12 (configuration not stated) | 218 to 220 °C
BrCc1ccc2sc3ccc4ccccc4c3c2c1 | 202 to 203 °C
C=Cc1c(NCc2ccco2)nc(C2CC2)nc1C(=O)OC | 85 to 86 °C
CC(C)NC(=O)Nc1cc(-c2c(-c3ccc(F)cc3)nc3cccnn23)ccn1 | 222 to 223 °C
COc1ccc(C2=NN(Cc3ccccc3)C(=O)[C@H]3CC=CC[C@@H]23)cc1OC (relative stereo) | 133 to 135 °C
N#Cc1ncnc2[nH]ccc12 | 237 to 238 °C
COC(=O)c1cc(O)cc(C(=O)CS(C)=O)c1 (configuration not stated) | 144 to 150 °C
Fc1ccccc1N1CCN(CCCCNc2ccc(-c3ccccc3)cn2)CC1 | 95 °C

Next, values leading:

melting point | SMILES
50 to 51 °C | Cc1cccc(C(=O)C(C)(C)C(C)(C)[N+](=O)[O-])c1
202 to 205 °C | CN(c1cncnc1)c1nc(N2CCOCC2)nc(-n2c(C(F)F)nc3ccccc32)n1
161 to 165 °C | Cc1cc(C(C)(C)C)c(O)c(C)c1CC(=O)O
263 to 265 °C | CCCCc1ccc(-c2csc(-c3ccc(C(=O)O)cc3)n2)cc1
141 °C | C=CC(C)=CC(=CC)NCc1ccc2nc(NC3CCN(C)CC3)n(Cc3nc(C)ccc3O)c2c1
237 °C | Cn1c2cccc(C#N)c2c2nc3ccccc3nc21
176 to 178 °C | O=C(O)c1ccc(OCC2CC(=O)N(c3ccc(OC4CCCC4O)cc3)C2)cc1 (configuration not stated)
69 to 74 °C | Cc1c(C(=O)c2cnn(C(C)(C)C)c2O)ccc(S(C)(=O)=O)c1C1=NOC2CC12 (configuration not stated)
252 to 254 °C | COC(=O)C(CCSC)NC(=O)C(CC(C)C)NC(=O)CNC(=O)C(NC(=O)C(Cc1ccccc1)NC(=O)C(C)NC(=O)OC(C)(C)C)C(C)C (configuration not stated) (Boc-AFVGLM-OMe; configuration not given here)
103 to 105 °C | COc1cc2c(c(Cl)c1Cl)C(=O)C(CCCl)=C2
175 to 178 °C | CCc1[nH]n(C2CCCC2)c2nc(-c3ccc(OCCCN(C)C)cc3)nc(=O)c1-2
169 to 172 °C | COCC(c1ccccc1)N(C)Cc1c(-c2ccc(NC(=O)NOC)cc2)sc2c1c(=O)n(-c1ccccc1)c(=O)n2Cc1c(F)cccc1F (configuration not stated)
278 to 280 °C | COc1ccccc1-n1cnc2c(C(N)=O)nc(-c3ccccc3O)nc21
178 to 180 °C | C=CCc1c(C)ccc(N2C(=O)c3ccccc3C2=O)c1O
156 to 158 °C | CCC1C=CCCC1C(O)C(N)=O (configuration not stated)
168 to 170 °C | Cc1cnc(C2=NC(C)(C(C)C)C(=O)N2)c(C(=O)c2cccs2)c1 (configuration not stated)
75 to 77 °C | Cc1nc(OCCCc2cc(OC(C)C)nn2Cc2ccc(Cl)cc2Cl)c(CC(=O)O)s1
140 to 142 °C | COC(=O)c1cc2c(Cl)cc(C(=O)OC)c(Cl)c2c(Cl)c1Cl
137 to 138 °C | CCOCC1N=NC(=S)N1C (configuration not stated)
184 to 185 °C | Cc1nc(-n2cnn(CCCC(F)(F)F)c2=O)sc1C(=O)NCc1cccnc1
119 to 120 °C | CC(C)Oc1cc(O)c(C(=O)C=Cc2ccccc2OC(C)C)c(OC(C)C)c1
146 to 147 °C | COc1ccc(CSc2nnc(-c3ccc4nccn4c3)o2)cc1C(F)(F)F

melting point | SMILES
158 to 160 °C | NC(=O)CCCCC1OCC(c2cccc3ccccc23)CO1 (configuration not stated)
198 °C | Oc1ccc(N2CCN(c3ccc4ccccc4n3)CC2)cc1
97.5 to 100 °C | N#CN(Cc1ccccc1)C(=O)CCCC(=O)N(C#N)Cc1ccccc1
135 to 137 °C | COc1ccc(C2=NN(c3csc(C)n3)C(=O)[C@H]3CCCC[C@@H]23)cc1OC (relative stereo)
159 °C | CCOC(=O)C1=C(N)N=C(OCC)C(C(=O)OCC)C1c1cccc(C#N)c1 (configuration not stated)
> 300 °C | Cc1oc2cc(O)ccc2c(=O)c1C#N
174 °C | CCCS(=O)(=O)c1cccc(-c2nc(=O)c3ccccc3s2)n1
152 to 153 °C | O=C(Nc1ccc(OCc2ccoc2)c2ccccc12)c1cc(F)cc(N2CCCCC2)c1
54 to 58 °C | Cc1c(Br)cc(C(C)(C)C)c(O)c1C(=O)O
122 to 123 °C | Cc1oc(-c2ccco2)nc1COc1ccc(COc2nn(-c3ccccc3)cc2C=O)cn1
66.8 °C | Clc1ccc2c(c1)CSc1ccccc1O2
95 to 96 °C | CC(C)(C)OC(=O)N[C@@H](Cc1ccccc1)[C@@H](O)CO
110 to 113 °C | CCCCc1oc2ccccc2c1C(=O)N(C)Cc1ccc2cc(O)ccc2c1
119 to 120 °C | CCOC(=O)C(CC(=O)c1cccc(OC)c1)(NC(C)=O)C(=O)OCC
91 to 92 °C | C[C@@H]1CC(=O)CC(C)(C)C1=O
73 °C | Cc1cc(C)c(S(=O)(=O)NCCS)c(C)c1
178 to 180 °C | COc1ccc(C(=O)N2Cc3ccccc3CC2C(=O)O)cc1 (configuration not stated)
147 °C | Cc1nn(C)cc1C(=O)Nc1cccc2c1CCC2(C)C
37 to 39 °C | CCCCCCCCCCSc1ccc(Br)cc1
175 to 176 °C | CCOCc1nc2c(N)nc3cc(-n4ccnc4)cnc3c2n1CC(C)C
140 to 141 °C | O[C@@H]1c2ccccc2C=C[C@H]1N1CCCC1 (relative stereo)
131 to 133 °C | O=C(C=Cc1ccc(F)c(F)c1)c1ccccc1O
